Experimental findings from paper PMC7136958, “Targeting the pregnane X receptor using microbial metabolite mimicry” (EMBO Molecular Medicine, 2020) are described below.

What is called IC50 is the concentration needed to halve the response being measured.

The target of one test is T1, PPARγ (Homo sapiens, UniProt P37231).
T1 construct: endogenous in cells; host or cells: PAZ-PPARg
Description: PPARγ reporter assay in PAZ-PPARg cells. In kind it is cell-based. The protocol: volume of 20 µl in 384-well black plates, with concentrations of tested compounds in the range from 1 […]
dark, and then fluorescent signals were measured at 495 nm and 520 nm, with the excitation filter 340 nm, on Infinite F200 microplate reader (Tecan Group Ltd, Switzerland). Finally, the TR-FRET ratio was calculated by dividing the emission signal of 520 nm by that at 495 nm. All experiments were done in tetraplicates and as two independent experiments. Final EC50 values were obtained by processing the data with GraphPad Prism 6 using standard curve interpolation (sigmoidal, 4PL, variable slope).
Tr a nscriptional activity of PPARγ was studied in stably transfected reporter cell line PAZ-PPARg 20. Cells were seeded in 96 -well plates, stabilized for 24 h, and then incubated with tested compound. Dimethyl sulfoxide (DMSO; 0.1% v/v) and 15 -deoxy-δ1 2 , 1 4-prostaglandin J2 […]
(Schoeller Instruments, Prague, Czech Republic). The data are expressed as fold induction ± SD of luciferase activity over the control cells. Differences were tested using one-way ANOVA wit h Dunnett’s post hoc test, p < 0.05, was considered significant (*).
On the technique in general: A reporter such as luciferase makes a cellular process visible.

The next test deals with IL-8 mRNA in HIOs. Description: IL-8 mRNA in iPSC-derived human intestinal organoids exposed to cytokine cocktail. In kind it is cell-based. The arrangement: key to IL8 mRNA: relative IL-8 mRNA level, normalized to GAPDH. The following applies: for basal IL-8 expression: 10 and 25 μM; for IL-8 mRNA expression in presence of cytokines: 12 h of exposure; for IL8 mRNA: HIO, triplicate. The protocol: Caco‐2 cell (ATCC, Manassas, VA) passages 25–35 were maintained and expanded in culture flasks in Dulbecco's modified Eagle's medium (DMEM) with 10% FBS and 1× antibiotic–antimycotic. The cells were kept in a humidified 37°C incubator with 5% CO2. Media were changed every 2–3 days, and cells were passaged 1–2 times a week. For all experiments, Caco‐2 cells (5 × 10^4 cells/ml) were seeded into 12‐well Transwell inserts or coverslips and cultured for 3 weeks. HIOs were generated from iPSCs as described previously (Spence et al, 2011), with some modifications. The iPSC cell line IISH1i‐BM1 (WiCell, Madison, WI) was cultured on Matrigel plates to 80% confluence in mTeSR™ 1 medium (Stem Cell Technologies, Seattle, WA) and differentiated to endoderm using Definitive Endoderm Kit (Stem Cell Technologies., Seattle, WA) for 4 days with daily media changes. Endoderm was then differentiated to hindgut for 5 days with the addition of FGF‐4 (500 ng/ml; Peprotech, Rocky Hill, NJ) and Chir99021 (3 μM; Cayman, Ann Arbor, MI) in RPMI media supplemented with 2% FBS. Floating hindgut spheroids were collected on days 3–5 of hindgut differentiation and suspended in Matrigel beads for HIO differentiation. HIOs were maintained in WENRAS media (Fujii et al, 2015), which maintains proliferation in the culture. Stock HIOs were passaged weekly by removing Matrigel with Cell Recovery Solution (Corning, NY) and mechanically breaking up organoids with pipetting. HIOs were seeded into new Matrigel beads at a 1:3 split, using WENRAS with added Rock Inhibitor Y‐27632 (10 μM) and Chir99021 (3 μM; Cayman., Ann Arbor, MI) for the first 2 days of culture.
HIOs and Caco‐2 were exposed to a pro‐inflammatory cytokine cocktail (10 ng/ml IFN‐γ, 10 ng/ml TNF‐α, 50 ng/ml IL‐1β) for 2–24 h in combination with DMSO or FKK5 and FKK6 compounds (10 and 25 μm). Relative mRNA levels of IL‐8 and IL‐6 were determined using quantitative real‐time PCR, with normalization to GAPDH. RNA was isolated using an RNeasy Mini Kit (Qiagen) as per the manufacturer's instructions. On column DNase (Qiagen) was used to remove any contaminating DNA. Next, cDNA was formed using iScript cDNA Synthesis Kit (Bio‐Rad) and 100 ng RNA. qRT–PCR was performed with SsoAdvanced Universal SYBR Green Kit (Bio‐Rad). The following primers were used: IL‐8 Forward: […]; IL‐8 Reverse: […]; IL‐6 Forward: […]; IL‐6 Reverse: […]; GAPDH Forward: […]; GAPDH Reverse: […]. For immunofluorescent staining of NF‐ĸB translocation to the cell nucleus, HIOs and Caco‐2 cell monolayers were fixed in 4% formaldehyde (in 1 × PBS) overnight at 4°C. The formaldehyde was removed by washing with 1 × PBS, and an antigen retrieval step was performed by incubating in 10 mM sodium citrate buffer in a vegetable steamer for 20 min. The samples were then blocked with normal donkey serum (10% in PBS with 0.3% Triton X‐100) for 1 h. Samples were incubated overnight with primary antibodies: rabbit anti‐NF‐κB p65 (D14E12 # 8242, 1:400 dilution, Cell Signaling Technology, Danvers MA), then immersed in Alexa Fluor® 555 donkey anti‐rabbit secondary antibody (A‐31572, Life Technologies) at a 1:500 dilution. Nuclei were stained with Hoechst 33342 (Life Technologies). The samples were then imaged using a Zeiss LSM880 Confocal/Multiphoton Upright Microscope, with 3‐D image rendering using Volocity. For controls, normal rabbit IgG (#2729S, Life Technologies) was used.

The target in the next test is T2, hPXR (Homo sapiens, UniProt O75469).
T2 sequence (O75469 111-434 limits assumed): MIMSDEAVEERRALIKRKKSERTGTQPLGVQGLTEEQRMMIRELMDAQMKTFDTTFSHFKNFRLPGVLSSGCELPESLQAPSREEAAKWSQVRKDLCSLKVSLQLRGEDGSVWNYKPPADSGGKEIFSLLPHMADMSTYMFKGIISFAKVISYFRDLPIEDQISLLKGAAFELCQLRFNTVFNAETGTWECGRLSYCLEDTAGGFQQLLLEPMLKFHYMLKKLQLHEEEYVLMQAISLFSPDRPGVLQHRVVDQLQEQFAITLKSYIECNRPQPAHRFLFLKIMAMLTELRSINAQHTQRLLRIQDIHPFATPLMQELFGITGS
Description: biochemical.

The mark [1] stands for this setting: compound 10µm, no cytokines, 2 hr.
Setting [2] is: cytokines + compound 10µm, 2 hr.
Setting [3] is: cytokines + compound 25µm, 2 hr.

Values joined by “and” are separate entries in the source; they are usually repeats but may differ in a detail not shown here. Identical values can stand only once.

T1 sequence (P37231 whole entry): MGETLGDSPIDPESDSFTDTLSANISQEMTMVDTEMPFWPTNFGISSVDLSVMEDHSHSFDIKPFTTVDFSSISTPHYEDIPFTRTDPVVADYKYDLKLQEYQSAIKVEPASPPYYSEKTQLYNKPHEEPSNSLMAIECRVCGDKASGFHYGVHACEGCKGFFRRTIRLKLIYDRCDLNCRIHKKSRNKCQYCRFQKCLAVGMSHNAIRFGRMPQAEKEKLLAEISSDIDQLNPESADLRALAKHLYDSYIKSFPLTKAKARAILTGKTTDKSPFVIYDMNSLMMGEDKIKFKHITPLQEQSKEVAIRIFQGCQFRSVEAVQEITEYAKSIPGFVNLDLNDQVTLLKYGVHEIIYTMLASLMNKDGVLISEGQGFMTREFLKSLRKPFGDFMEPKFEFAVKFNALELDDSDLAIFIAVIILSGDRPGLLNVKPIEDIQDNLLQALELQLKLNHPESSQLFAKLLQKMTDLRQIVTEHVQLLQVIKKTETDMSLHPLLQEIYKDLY
Description for hPXR: All PXR‐binding assays were performed as two independent experiments, each with a minimum of four replicates. Final IC50 was obtained by processing the data with GraphPad Prism 6 using standard curve interpolation (sigmoidal, 4PL, variable slope).

With `O=C(c1ccncc1)c1cc2ccccc2n1S(=O)(=O)c1ccccc1` [FKK5, (1-(phenylsulfonyl)-1H-indol-2-yl)(pyridin-4-yl)methanone], the “PPARγ ligand agonist activity” value on PPARγ is listed as “did not observe any significant ligand agonist activity”. In the test on IL-8 mRNA in HIOs, the “basal IL-8 expression” value was “no significant effect”. For the same compound, the “IL-8 mRNA expression in presence of cytokines” value with IL-8 mRNA in HIOs is reported as “significantly reduced”. Besides, the “IL8 mRNA” value in the test with IL-8 mRNA in HIOs (setting [1]) was 18.0113 and 18.2375 and 29.1251; in the test with IL-8 mRNA in HIOs (compound 25µm, no cytokines, 2 hr) it was 28.3595 and 38.1574 and 25.5014; in the test on IL-8 mRNA in HIOs (setting [2]), 84.3969 and 82.9774 and 82.3934; with IL-8 mRNA in HIOs (cytokines + compound 10µm, 12 hr), 1568.63 and 1202.46 and 1346.22; in the test on IL-8 mRNA in HIOs (setting [3]), 91.455 and 107.347 and 106.247; in the test with IL-8 mRNA in HIOs (cytokines + compound 25µm, 12 hr), 1661.53 and 1048.7 and 891.557. Moreover, the IC50 against hPXR is 3770 nM.

For `C#CCC(O)(c1ccncc1)c1cc2ccccc2n1S(=O)(=O)c1ccccc1` (centres unmarked) [FKK6], at PPARγ, the “PPARγ ligand agonist activity” value is reported as “did not observe any significant ligand agonist activity”. For the same compound, the “basal IL-8 expression” value in the test on IL-8 mRNA in HIOs is given as “no significant effect”. Besides, the “IL-8 mRNA expression in presence of cytokines” value in the test with IL-8 mRNA in HIOs is given as “significantly reduced”. For the same compound, the “IL8 mRNA” value is 17.457 and 16.5395 and 13.4302 with IL-8 mRNA in HIOs (setting [1]); 87.755 and 95.5702 and 80.4889 in the test with IL-8 mRNA in HIOs (setting [2]); 19.632 and 32.9894 and 27.3407 with IL-8 mRNA in HIOs (setting [3]). Also, the IC50 at hPXR is 1560 nM and ~1560 nM.
